The subject of one series is H460 and A375 cells. As to the kind of experiment: Cell viability assays in H460 and A375 cells. In kind it is cell-based. Conditions: FIGS. 9-11. Here is the method:
Example 217. (FIG. 9) Screening of selected USP2 inhibitors using cell viability assays. H460 cells were treated with […] of indicated compounds for 48 h, cell viabilities were indicated by the images of cell morphology. Example 218. (FIG. 10) Screening of selected USP2 inhibitors using cell viability assays. A375 cells were treated with indicated concentration of indicated compounds for 48 h, cell viabilities were indicated by the images of cell morphology. Example 219. (FIG. 11) GI50 determination of selected compounds in A375 cells after 48 hours treatment. 0.3 million of H460 cells were seeded in 6-well plate. Next day, cells were treated with 10 uM of drugs for 48 h. DMSO served as negative control. Images of cell morphology were obtained with Olympus IX51 microscope, indicating the cell viability upon treatment.

Series [1] has as its system P53 and P21 protein levels in H460 and A375 cells. Description: Immunoblotting of p53 and p21 protein levels in H460 and A375 cells. In kind it is cell-based. The following applies: FIGS. 12-13. The protocol:
Example 220. (FIG. 12) Screening of selected USP2 inhibitors in H460 cells using immunoblotting experiments. The effect of selected USP2 inhibitors (10 μM, 48 h treatment time) on modulating the protein levels of p53 and p21 in H460 cells. Example 221. (FIG. 13) Screening of selected USP2 inhibitors in A375 cells using immunoblotting experiments. The effect of selected USP2 inhibitors with indicated concentration after indicated treatment time on modulating the protein levels of p53 and p21 in A375 cells. Whole cell extracts were prepared with Flag lysis buffer (50 mM Tris-HCl, pH 8.0, 137 mM NaCl, 1 mM NaF, 1 mM NaVO3, 1% Triton X-100, 0.2% sarkosyl, 0.5 mM DTT, 0.5 mM PMSF and 10% glycerol) containing fresh-added protease inhibitors. For cytosolic and nuclear fractions, the cell pellet was firstly incubated with Harvest buffer (10 mM Hepes (pH 8.0), 50 mM NaCl, 0.5 M sucrose, 0.1 mM EDTA, and 0.25% Triton X-100) containing fresh-added protease inhibitors for 5 min on ice followed by centrifugation @120 g for 10 min. The supernatant was cytosolic fraction. After wash twice with buffer A (10 mM Hepes (pH 8.0), 10 mM KCl, 0.1 mM EDTA, and 0.1 mM EGTA), nuclear pellet was lyzed with BC100 (50 mM Tris-HCl, pH 8.0, 100 mM NaCl, 0.2% Triton X-100, and 10% glycerol) containing fresh-added protease inhibitors for 30 min on ice to get the nuclear fraction. Protein concentration was measured with the protein assay dye reagent (Bio-Rad, Cat #5000006) as manufacturer's user guide. 20-60 μg total proteins were loaded to and separated in SDS-PAGE precast gels, then transferred to nitrocellulose membrane. After incubation with primary antibodies for overnight at 4° C., HRP-conjugated secondary antibodies were used, and western blot signals were detected on autoradiographic films after incubating with ECL substrate.

The next series in a line: In vivo mouse PK studies. The following applies: plasma, po, 10 mg/kg. The protocol:
Example 222. (FIG. 14) PK results of selected compounds. (a) Plasma concentrations of MS102 and ML346 over 24 h after i.p. injection at 50 mg/kg dose. (b) Plasma concentrations of MS102 over 24 h using different administration routes: […]. (50 mg/kg) by. (c) Plasma concentrations of […]161-180 and XH153-182 over 8 h at 5 mg/kg dose by i.p. injection. (d) Plasma concentrations of XH161-172 over 24 h using different administration routes: […]) Plasma concentrations of XH161-180 over 24 h using different administration routes: […]. (10 mg/kg). Pharmacokinetic studies for ML364, MS102, MS1172, MS1180 and XH153-182 were performed by Sai Life Sciences Limited (India). Experiments were design with 3 mice/time point/compound. Animals were administered intraperitoneally, intravenously as slow bolus injection through tail vein, or through oral route with solution formulation of indicated compound at indicated dose. […] Blood samples (approximately 60 μL) were collected under light isoflurane anesthesia (Surgivet®) from a set of three mice at different time points. Immediately after blood collection, plasma was harvested by centrifugation at 4000 rpm, 10 min at 4° C., and samples were stored at -70±10° C. until bioanalysis. All samples were processed for analysis by protein precipitation method and analyzed with the fit-for-purpose LC-MS/MS method (LLOQ=1.01 ng/mL). […]

Another series addresses T1, USP2 (Homo sapiens, UniProt O75604).
T1 sequence (O75604 259-605 limits assumed): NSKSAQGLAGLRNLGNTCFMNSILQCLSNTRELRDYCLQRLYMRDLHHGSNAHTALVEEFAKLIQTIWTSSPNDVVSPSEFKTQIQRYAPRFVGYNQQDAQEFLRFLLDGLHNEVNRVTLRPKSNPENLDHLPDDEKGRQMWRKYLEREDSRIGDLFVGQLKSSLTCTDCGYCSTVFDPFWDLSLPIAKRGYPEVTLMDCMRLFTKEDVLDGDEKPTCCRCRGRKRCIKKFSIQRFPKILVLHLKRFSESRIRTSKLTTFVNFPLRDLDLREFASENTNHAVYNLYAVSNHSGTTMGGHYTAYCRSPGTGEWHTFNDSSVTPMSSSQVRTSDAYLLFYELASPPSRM
As to the kind of experiment: biochemical.

Series [2] has as its system ACE2 and cyclin D1 protein levels in HepG2 cells. As to the kind of experiment: Immunoblotting of ACE2 and cyclin D1 protein levels in HepG2 cells.
Method: (FIG. 5) Screening of selected USP2 inhibitors in HepG2 cells using immunoblotting experiments. (a,b) The effect of selected USP2 inhibitors (5 M) on modulating the protein levels of ACE2 and cyclin D1 in HepG2 cells. […] (d) The effect of selected USP2 inhibitors (1 and 5 μM) on modulating the protein levels of ACE2 and cyclin D1 in HepG2 cells. (e-f) The effect of selected USP2 inhibitors (5 M) on modulating the protein levels of ACE2 and cyclin D1 in HepG2 cells.
In brief, cells were lysed in protease and phosphatase inhibitor-contained EBC buffer (50 mM Tris-HCl, pH 7.4; 120 mM NaCl; 0.5% NP-40). Protein concentrations were determined, and an equal amount of protein samples were harvested, followed by adding 5×SDS loading buffer (312 mM Tris-HCl, 10% SDS, 25 mM P-mercaptoethanol, 50% glycerol, and 0.05% bromophenol blue) and boiling for 10 min. SDS-PAGE electrophoresis, wet electroblotting, milk blocking, primary and secondary antibody incubation, and ECL development were conducted sequentially.

The structures appear in SMILES notation.

Method for USP2: (FIG. 4) IC50 determination of selected USP2 inhibitors using USP2 enzymatic activity assays.
The USP2 (E-504-050, R & D Systems) and SARS-CoV-2 PLpro (100735, BPS Bioscience) deubiquitinase activity was determined with the DUB Activity Assay Kit (701490, Cayman), slightly modified based on the manufacturer's instructions. Briefly, the inhibitors were diluted as indicated with 40 μL of 1×DUB assay buffer, followed by adding 5 μL of DUB proteins. The plate was covered and incubated with the DUB-inhibitor mix at 37° C. for 30 minutes. Then, the plate cover was removed, and the reactions were initiated by quickly adding 5 μL of Ubiquitin-AMC to all wells being used. The fluorescence was read in an Infinite M1000 microplate reader (Tecan), with an excitation wavelength of 360 nm and emission wavelength of 460 nm. The DUB activity was calculated using the formulation provided by the kit.

For the molecule `O=C(Nc1nc(-c2ccc(Br)cc2)cs1)c1ccc(F)cc1NS(=O)(=O)C1CCCCC1` [MS1180, N-(4-(4-bromophenyl)thiazol-2-yl)-2-(cyclohexanesulfonamido)-4-fluorobenzamide], the antiproliferation effect result with H460 and A375 cells was “antiproliferation effect”. The “tumor suppressors P53 and P21 protein levels” value in series [1] is recorded as “elevating”. In the series “In vivo mouse PK studies”, this molecule returned a bioavailability of 95%.

On to `O=C(Nc1nc(-c2ccc(Br)cc2)cs1)c1ccc(F)cc1NC(=O)C(F)(F)F` [XH188-135p2, N-(4-(4-Bromophenyl)thiazol-2-yl)-4-fluoro-2-(2,2,2-trifluoroacetamido)benzamide], for which, in the series with H460 and A375 cells, the antiproliferation effect result is reported as “antiproliferation effect”. The “tumor suppressors P53 and P21 protein levels” value in series [1] is given as “elevating”.

Take `O=c1c2ccc(F)cc2nc(C(F)(F)F)n1-c1nc(-c2ccc(Br)cc2)cs1` [XH188-135p1, 3-(4-(4-Bromophenyl)thiazol-2-yl)-7-fluoro-2-(trifluoromethyl)quinazolin-4(3H)-one]: the antiproliferation effect entry in the series with H460 and A375 cells is on record as “antiproliferation effect”. Further, the “tumor suppressors P53 and P21 protein levels” value in series [1] is “elevating”.

`O=C(Nc1nc(-c2ccc(F)cc2)cs1)c1ccc(F)cc1NC(=O)C(F)(F)F` [XH198-68p2, 4-Fluoro-N-(4-(4-fluorophenyl)thiazol-2-yl)-2-(2,2,2-trifluoroacetamido)benzamide]: in the series with H460 and A375 cells, the antiproliferation effect entry is recorded as “antiproliferation effect”. Besides, the “tumor suppressors P53 and P21 protein levels” value in series [1] is recorded as “elevating”.

In the case of `Cc1ccc(S(=O)(=O)Nc2ccc(C(F)(F)F)cc2C(=O)Nc2nc(-c3ccc(Br)cc3)cs2)cc1` [XH161-102 (MS102), N-(4-(4-bromophenyl)thiazol-2-yl)-2-((4-methylphenyl)sulfonamido)-5-(trifluoromethyl)benzamide], the IC50 against USP2 came out at 5 µM. For the same molecule, the ACE2 protein level entry in series [2] is reported as “dose-dependent reduce”.

On to `O=C(Nc1cc(F)ccc1C(=O)Nc1nc(-c2ccc(F)cc2)cs1)c1ccc(C(F)(F)F)cc1` [XH208-93p2, 4-Fluoro-N-(4-(4-fluorophenyl)thiazol-2-yl)-2-(4-(trifluoromethyl)benzamido)benzamide], for which, in the series on H460 and A375 cells, the antiproliferation effect result is “antiproliferation effect”. For the same molecule, the “tumor suppressors P53 and P21 protein levels” value in series [1] is recorded as “elevating”.

For the molecule `Cc1ccc(S(=O)(=O)Nc2cc(F)ccc2C(=O)Nc2nccs2)cc1` [XH153-182, 4-fluoro-2-((4-methylphenyl)sulfonamido)-N-(thiazol-2-yl)benzamide], the antiproliferation effect result in the series with H460 and A375 cells was “antiproliferation effect”. The “tumor suppressors P53 and P21 protein levels” value in series [1] was “elevating”.

In the case of `CC(C)S(=O)(=O)Nc1cc(F)ccc1C(=O)Nc1nc(-c2ccc(Br)cc2)cs1` [MS1172, N-(4-(4-bromophenyl)thiazol-2-yl)-4-fluoro-2-((1-methylethyl)sulfonamido)benzamide], in the series with H460 and A375 cells, the antiproliferation effect result was “antiproliferation effect”. For the same molecule, the “tumor suppressors P53 and P21 protein levels” value in series [1] is recorded as “elevating”. In “In vivo mouse PK studies”, this molecule gave a bioavailability of 100%.

The values are drawn from patent US20260242394A1, “USP2 INHIBITORS AND METHODS OF USING THE SAME FOR THE TREATMENT OF DISEASES” (ICAHN SCHOOL OF MEDICINE AT MOUNT SINAI, priority 2023, published 2026).
